In patent publication US6794154B1, “Remedies for kidney diseases and method for screening the same” (Tanabe Seiyaku Co., Ltd., priority 1999, dated 2004):

What was measured:
[1] = system: L-FABP mRNA in human urinary exfoliated cells (human renal tubular epithelial cells); experiment: L-FABP up-regulating activity at mRNA level (RT-PCR) in human urinary exfoliated cells; format: cell-based; conditions: 10 μM (Table 1), listed as THA
Method: Renal tubular epithelial cells exfoliated from kidney tissues into urine (hereafter, referred to as “urinary exfoliated cell”) were isolated from human urine sample and cultured in the following manner. Firstly, urine samples from male infant nephritis patients (0-3 years old) were collected using the clean-catch method. The urine samples were then centrifuged (1000 rpm, 10 minutes) at room temperature and the supernatant was discarded. The pellet was washed with 10% (v/v) fetal calf serum-containing Dulbecco's modified Eagle's medium twice and then with culture medium once. The culture medium used herein was a mixture (1:1) of Dulbecco's modified Eagle's medium and Ham's F-12 medium, to which mixture was added fetal calf serum (10% v/v), insulin (5 μg/ml), transferrin (5 μg/ml), sodium selenite (5 ng/ml), dexamethasone (10^−8 M), nicotinamide (5 mM), penicillin (100 IU/ml) and streptomycin (100 μg/ml). The pellet was suspended into the culture medium, diluted appropriately and then cultured in collagen type 4-coated dish (3.5 cm in diameter, Falcon). The cultivation was performed under the condition of 5% CO2, 37° C. […] Also, in order to normalize the measurement values, rBAT (related to b^0,+ system amino acid transporter; Purroy et. al., Genomics, Vol 37. pp. 249-252, 1996) mRNA was detected as control by RT-PCR.

[2] = system: human L-FABP gene transcriptional regulatory region (luciferase reporter); experiment: L-FABP up-regulating activity by luciferase reporter assay in proximal renal tubular epithelial cell line mProx 37-13; format: cell-based; conditions: mProx 37-13 cells, serum-free medium, luciferase measured after 2 to 10 hours; FIG. 4
Method: A test substance was examined for the L-FABP up-regulating activity by reporter assay method in the following manner using the proximal renal tubular epithelial cell line mProx 37-13 (also referred as “cell line No. 13”) comprising L-FABP reporter DNA construct and was prepared in Example 2 above. Firstly, the cell line mProx 37-13 was added in 96-well flat-bottom plates at 5×10^4 cells/ 100 μl/well and cultured. The cultivation was conducted using plates pre-coated with 0.1% gelatin and, as a medium, a high glucose-containing Dulbecco's MEM medium (Dulbecco's MEM, high glucose; DMEM) (Gibco) supplemented with 10% fetal calf serum, 100 unit/ml of penicillin and 100 μg/ml of streptomycin. […] After additional cultivation, Luciferase activity was detected after 2 to 10 hours. Luciferase activity was measured in the following way. […] After the plate stored at −80° C. was allowed to become room temperature, 100 μl of luminescence substrate solution (PicaGene luminescence kit, TOYO INK) was added to initiate reaction. Amount of luminescence was detected using luminometer (MicroLumat LP98P, BERTHOLD). […] The luciferase induction rate (Luc induction rate) was calculated based on the activity value according to the following equation: Luc induction rate=(test value)/(control value).

human L-FABP = experiment: L-FABP up-regulating activity at protein level (Western blotting or ELISA) in LLC-PK1 or mouse immortalized renal tubular epithelial cells carrying the human L-FABP chromosomal gene; format: cell-based; conditions: 1 μM, serum-free DMEM; anti-human L-FABP antibody
From the text: The plasmid isolated in Example 1, (2) above, which contains human L-FABP chromosomal gene (entire length), was linealized and transfected into the porcine renal tubular cell line LLC-PK1 or mouse immortalized renal tubular epithelial cells prepared in a manner similar to that described in Example 2 (3) above to obtain stable transformed cell lines. The human L-FABP chromosomal gene was integrated into these cells on their chromosome without deletion. Using these cells, L-FABP up-regulating activity of test compounds were examined at RNA level and protein level in the following manner. Cells were cultured to become confluent, when the medium was replaced with serum-free DMEM medium, and test compounds were added to the medium at final concentration of 1 μM. The cultivation was continued at 37° C. Control sample was obtained without adding any test compounds. Measurement at protein level was carried out in the following manner. Cultivated cells were collected and sonicated and then cell extract was prepared. The amount of L-FABP in the extract was detected by Western Blotting method or ELISA method with anti-human L-FABP antibody. […] The up-regulating effect on L-FABP protein expression was also observed when Etomoxir was added.

[3] = system: adriamycin-induced glomerular sclerosis hFABP-Tg mouse; experiment: Adriamycin-induced glomerular sclerosis model in transgenic mouse introduced with human L-FABP gene (hFABP-Tg mouse); format: in vivo; conditions: 10 mg/kg
Method: Transgenic mouse (hFABP-Tg mouse) introduced with human L-FABP gene was prepared. The hFABP-Tg mouse was used to make renal disease model similar to that of Example 8 and the effect of MCC-555 was identified.
In the preparation of hFABP-Tg mouse, male BCF1 mouse (13-week or over) was used for sterile mating and natural mating; female ICR mouse (10-week or over) for embryo transplant and as a foster mother; male BDF1 mouse (13-week or over) for mating; and female BCF1 mouse (8-week or over) for collection of eggs, respectively. The resultant transgenic mouse (B6C3F1 line) was used to backcross with BALB/c mouse.
The resultant female transgenic mouse was used to prepare a renal disease model (adriamycin-induced glomerular sclerosis model) and to confirm effects of drug (MCC-555). The preparation of disease model and confirmation of effect of a drug were conducted in a similar manner to that described in Example 8 above except that the dose of adriamycin on the first experiment day (Day 0) was 15 mg/kg (15 ml/kg, dissolved in saline at concentration of 1 mg/ml).
In drug administration group (n=5), MCC-555 (10 mg/kg) was administered to mice that have received adriamycin, and in control group (at the beginning of experiment, n=5), only carrier was administered to mice that have received adriamycin, In normal group (n=3), mice that were not treated with adriamycin received carrier. Collection of urine was performed 3 times in total, i.e., day 6-7 day (Day 7), day 10-11 (Day 11), and day 13-14 (Day 14) and urinary protein, NAG and creatinine concentrations were determined by Automated clinical analyzer after measurements of urine volume.

human L-FABP mRNA = experiment: L-FABP up-regulating activity at mRNA level (RT-PCR) in LLC-PK1 or mouse immortalized renal tubular epithelial cells carrying the human L-FABP chromosomal gene; format: cell-based; conditions: 1 μM, serum-free DMEM; from 15 minute to 24 hour after beginning of cultivation; normalised to GAPDH mRNA
From the text: The plasmid isolated in Example 1, (2) above, which contains human L-FABP chromosomal gene (entire length), was linealized and transfected into the porcine renal tubular cell line LLC-PK1 or mouse immortalized renal tubular epithelial cells prepared in a manner similar to that described in Example 2 (3) above to obtain stable transformed cell lines. The human L-FABP chromosomal gene was integrated into these cells on their chromosome without deletion. Using these cells, L-FABP up-regulating activity of test compounds were examined at RNA level and protein level in the following manner. Cells were cultured to become confluent, when the medium was replaced with serum-free DMEM medium, and test compounds were added to the medium at final concentration of 1 μM. The cultivation was continued at 37° C. Control sample was obtained without adding any test compounds. Measurement at mRNA level was carried out in the following manner. After cultivation, cells were collected and total RNA was prepared. […] Also, in order to normalize the measurement values, GAPDH (glyceraldehyde 3-phosphate dehydrogenase) mRNA was detected as control in the similar RT-PCR. The resulted PCR products were subjected to agarose-gel electrophoresis, the gel was stained with ethidium bromide to detect bands respectively and the expression amount was determined by densitometry, or visually.

[4] = system: adriamycin-induced glomerular sclerosis mouse; experiment: Adriamycin-induced glomerular sclerosis model mouse (BALB/c); format: in vivo
From the text: An adriamycin-induced glomerular sclerosis mouse was used as a renal disease model to confirm effect of PPAR agonist MCC-555 in the following manner. An adriamycin(AD)-induced glomerular sclerosis mouse is a pathological model which develops focal glomerular sclerosis in 3 weeks after the onset of nephrosis symptom while showing the symptom and eventually results in irreversible chronic renal insufficiency (Chen et. al., Nephron, vol. 78, pp.440-452, 1998). As shown in Examples 3, 4 and 5, MCC-555 is a compound confirmed to have L-FABP up-regulating activity. In the experiment, 7-week-age female BALB/c mice (purchased from Charles River Japan, Inc.) were used. At the first day of experiment (Day 0), Adriamycin (Sigma) was administered intravenously at 10 mg/kg (10 ml/kg dissolved in saline at 1 mg/ml). Normal group received intravenously an equivalent amount of saline only. To the mice were administered orally MCC-555 or carrier alone for 14 days from the first day of experiment (Day 0 to Day 13). The administration was initially conducted 1 hour before the adriamycin administration, and administration volume was 10 ml/kg for each time. In drug administration group (n=6), MCC-555 (suspension in 0.1% Tween 80-containing purified water) was administered at a dose of 10 mg/kg to mice that have received adriamycin. In control group (n=6), carrier (0.1% Tween 80-containing purified water) alone was administered to mice that have received adriamycin. Also in normal group (n=3), mice received carrier alone. Mice were separately housed in “a metabolic cage” and allowed to access food and water ad libitum while collecting urine for 24 hours. Specifically, collection of urine was performed 4 times in total, i.e., day 3-4, day 6-7, day 9-10, and day 13-14. Following measurement of volume, the collected urine was subjected to determination of urinary protein, NAG (N-acetyl-β-D-glucosaminidase) and creatinine (CRE) concentrations by clinical chemistry analyzer (SuperZ-818, […] Co.) After the collection of urine on the last experiment day (Day 14), blood was collected via abdominal aorta under ethereal anesthetization and serum was separated. Cholesterol and albumin were determined using Automated clinical analyzer TBA-80FR (TOSHIBA). Also, kidneys were isolated and fixed with neutral buffered formalin.

[5] = adriamycin 15 mg/kg, Day 7, 11, 14, FIG. 9

| Compound | L-FABP mRNA [1] | Induction of luciferase activity (L-FABP up-regulating activity) [2] | Up-regulating effect on L-FABP protein expression (human L-FABP) | Increase of NAG excretion amount after AD administration [3, 5] | Increase of urinary protein after AD administration [3, 5] | Animals died during the experiment ([3]; n=5, in the control group 3 animals died) | Induction of L-FABP mRNA (human L-FABP mRNA) | Histological changes of kidney (tissue imaging examination) ([4]; 10 mg/kg orally for 14 days) | NAG excretion (index of proximal renal tubular injury) ([4]; 10 mg/kg orally for 14 days (Day 0 to Day 13), adriamycin 10 mg/kg i.v., FIG. 7) | Proteinuria (urinary protein) ([4]; 10 mg/kg orally for 14 days, adriamycin 10 mg/kg i.v., FIG. 7) | Blood biochemical examination parameters (blood cholesterol and albumin level) ([4]; 10 mg/kg orally for 14 days, serum at Day 14, FIG. 8) |
| --- | --- | --- | --- | --- | --- | --- | --- | --- | --- | --- | --- |
| CCCc1c(OCCCCCCc2nn[nH]n2)ccc(C(C)=O)c1O [4-THA, 2-hydroxy-3-propyl-4-[6-(tetrazol-5-yl)hexyloxy]acetophenone] | increased | – | – | – | – | – | – | – | – | – | – |
| CCOC(=O)C1(CCCCCCOc2ccc(Cl)cc2)CO1 (stereo not shown) [Etomoxir, ethyl 2-[6-(4-chlorophenoxy)hexyl]oxiranecarboxylate] | – | Induction of luciferase activity was observed | also observed | – | – | – | – | – | – | – | – |
| O=C1NC(=O)C(Cc2ccc3cc(OCc4ccccc4F)ccc3c2)S1 (stereo not shown) [MCC-555, 5-[6-(2-fluorobenzyloxy)naphthalene-2-ylmethyl]thiazolidine-2,4-dione] | – | Induction of luciferase activity was observed | up-regulating effect on L-FABP protein expression was observed | significantly suppressed | significantly suppressed | no animals died | induction of L-FABP mRNA was observed | inhibited | suppressed | improved | improved |
